According to ChEMBL document CHEMBL1177683, “Synthesis and pharmacological evaluation of pyrazine N-acylhydrazone derivatives designed as novel analgesic and anti-inflammatory drug candidates” (2010):

Key:
Assay type in all cases: functional
Mus musculus [1] = test: Analgesic activity in Swiss mouse assessed as increase in latency of paw licking at 15 umol/kg, ip after 120 mins measured for 60 seconds by hot plate test (reference value: 5.6 +/- 0.5 seconds)
Mus musculus [2] = test: Analgesic activity in Swiss mouse assessed as increase in latency of paw licking at 15 umol/kg, ip after 60 mins measured for 60 seconds by hot plate test (reference value: 4.9 +/- 0.5 seconds)
Mus musculus [3] = test: Analgesic activity in Swiss mouse assessed as increase in latency of paw licking at 15 umol/kg, ip after 150 mins measured for 60 seconds by hot plate test (reference value: 5.1 +/- 0.4 seconds)
Mus musculus [4] = test: Analgesic activity in Swiss mouse assessed as increase in latency of paw licking at 15 umol/kg, ip after 90 mins measured for 60 seconds by hot plate test (reference value: 5.9 +/- 0.8 seconds)

## CN1CC[C@]23c4c5ccc(O)c4O[C@H]2[C@@H](O)C=C[C@H]3[C@H]1C5 [MORPHINE]
Mus musculus [1]
  Time: 9.7 s
Mus musculus [2]
  Time: 12.8 s
Mus musculus [3]
  Time: 9.7 s
Mus musculus [4]
  Time: 10.3 s
